Where two headings read alike, the source gives them in different places.
Experiments:
[1] = test system: iCell cardiomyocytes (human iPSC-derived cardiomyocytes); experiment: High-content imaging of cytotoxicity and mitochondrial integrity in iPSC-CMs; type: cell-based; settings: Homo sapiens; for viability at 0.01 µM / activity at 0.01 µM / viability at 0.1 µM / activity at 0.1 µM / viability at 1 µM / activity at 1 µM / viability at 10 µM / activity at 10 µM / viability at 100 µM / activity at 100 µM: Cardiomyocyte, 0.00 µM = 100.00; for viability at 0.1 µM / activity at 0.1 µM: 0.10 µM; for minimal effective concentration: iPSC-CM
Experimental: Details on cardiomyocyte cell culture are described in detail elsewhere ([Grimm et al. 2015b]; [Sirenko et al. 2013a]). Briefly, tissue-culture treated 384 well plates were gelatinized with 25μL per well of 0.1% (w/v) gelatin in water for 2 h at 37°C and 5% CO2 . Individual vials of cells were thawed for 4 min in a water bath maintained at 37°C. Thawed cells were resuspended in 10ml plating medium containing 1:500 (vol/vol) penicillin/streptomycin solution at room temperature (RT). Live cell counts for each cell suspension were determined by trypan blue staining and cells were further diluted to provide final cell densities of 2×10^5 viable cells/ml. Thus, 5,000 cells suspended in 25μL media were transferred per well after the gelatin solution had been discarded. Cell culture plates were rested for 30 min at RT before they were incubated for 48 h at 37°C and 5% CO2 . Then, a media exchange with 30μL of fresh maintenance medium containing 1:500 (vol/vol) penicillin/streptomycin solution was performed, and cell media were subsequently changed every 48 h for 12 d. On the experiment day, the medium was completely exchanged with either 25μL (for Ca^2+ flux assay) or 40μL (for imaging) of fresh medium.
Cytotoxicity and effects on mitochondrial integrity of various PCBs and PCB metabolites in induced pluripotent stem cell-CMs (iPSC-CMs) were assessed using high-content cellular imaging in ImageXpress® Micro Confocal (Molecular Devices) as detailed in ([Grimm et al. 2015b]). Cells in 40μL maintenance media were treated with 10μL of 5× chemical solutions to provide test chemicals at final assay concentrations ranging from 0.01 to 100μM . […] Next, sample wells were treated with 50μL equilibrated 2× concentrated staining solution (maintenance medium containing Hoechst 33342, 4μg/mL and MitoTracker™ Orange, 0.4μM ). Microplates were then incubated for 15 min at 37°C and 5% CO2 before cells were washed twice with 30μL maintenance medium. All media were aspirated and discarded, and cells were fixed with […] of a 3.7% formaldehyde solution for 15 min at 37°C and 5% […] . Fixed cells were washed 3× with 25μL PBS before image acquisition using the DAPI (Hoechst 33342) and Cy3 (MitoTracker™ Orange) filters at 10× magnification on the ImageXpress® Micro Confocal high-content confocal microscope (Molecular Devices). The multiwavelength cell scoring applications module in MetaXpress® was used to analyze acquired images.
(§1) Phenotypic responses were quantitatively assessed using concentration–response modeling as detailed elsewhere ([Sirenko et al. 2017]). Briefly, phenotypic readouts were normalized to vehicle controls and fit to a four-parameter logistic model in R studio software (version 3.1.1; R Development Core Team). Following EPA guidance on dose–response modeling, a cutoff of one standard deviation across means of vehicle control (i.e., 0.5% vol/vol DMSO in cell culture media) wells was applied to determine the point-of-departure (POD) values ([U.S. EPA 2012]). In the absence of a concentration–response, the highest tested concentration (i.e., 100μM ) was assigned as “no observable adverse effect level.” The concentration–response assessment R script, as well as templates for vehicle and concentration–response data, are available as a supplement to Sirenko et al. ([2017]). The ability of physicochemical properties to predict differences in PODs were evaluated by multiregression and mixed-effects modeling using R.

[2] = test system: HUVECs; experiment: High-content imaging cytotoxicity in HUVECs, 24 h; type: cell-based, human; settings: Homo sapiens, HUVEC, 24 h, HUVECs; for viability at 0.01 µM / activity at 0.01 µM / viability at 0.1 µM / activity at 0.1 µM / viability at 1 µM / activity at 1 µM / viability at 10 µM / activity at 10 µM / viability at 100 µM / activity at 100 µM: 0.00 µM = 100.00; for viability at 0.1 µM / activity at 0.1 µM: 0.10 µM; for minimal effective concentration: top concentration 100.00 µM
Experimental: Similar to the cultivation of iCell®-endothelial cells, HUVEC maintenance and experimentation are detailed elsewhere ([Iwata et al. 2017]). Briefly, HUVECs were thawed, seeded, and grown in T75 tissue culture flasks in Medium 199 with EGM™-2 BulletKits™. HUVECs were incubated at regular cell culture conditions, 37°C and 5% CO2 , and passaged every 2–3 d using TrypLE™ Express. To ensure adequate endothelial function, experiments were performed with cells between passages 1 and 5.
Cytotoxicity was assessed in parallel experiments. For iCell®-endothelial cells, 384-well plates were coated with a 30μg/mL fibronectin solution ( 10μL/well ) and incubated for 2 h at RT. iCell®-endothelial cells were dissociated with TrypLE™ Express and prepared into a solution to achieve 750 cells per well and 50μL of total volume. The fibronectin solution was removed from the 384-well plate, and cells were plated. For HUVECs, similar dissociation and the same cell density were used for plating with the exclusion of the fibronectin solution. Cells were incubated at 37°C and 5% CO2 until a monolayer was formed, typically 3–5 d. 2×PCB plates were created with the requisite maintenance medium. Before treatment, the medium in the wells was exchanged to 25μL/well of fresh maintenance medium. 2×PCB chemical solutions ( […] ) were added. After 24 h incubation at 37°C and 5% CO2 , cells were stained with Hoechst 33342, MitoTracker™ Orange, and calcein AM for 20 min before replacing the staining media with FluoroBright DMEM. Cell culture plates were imaged using the ImageXpress® Micro Confocal high-content imaging system (Molecular Devices). Images were acquired at 10× magnification with DAPI, TRITC, or FITC filter (Hoechst 33342, MitoTracker™, or calcein AM, respectively). The multiwavelength cell scoring applications module in MetaXpress™ (Molecular Devices) was used to analyze the images.
as §1

[3] = 24 hr, read-out: huvec.cyto.24hr
[4] = 24 hr, read-out: huvec.mito.24hr
[5] = 24 hr, read-out: huvec.mitoint.24hr
[6] = 24 hr, read-out: huvec.nma.24hr
[7] = 24 hrs, read-out: huvec.tc.24hrs

Oc1ccc(O)c(-c2ccc(Cl)cc2)c1 [2',5'-DiOH PCB3]
viability at 0.01 µM ([1]; 1.5 h, read-out: cm.cam.90min): 104% | activity at 0.01 µM ([1]; 1.5 h, read-out: cm.mii.90min): 107% | activity at 0.01 µM ([1]; 1.5 h, read-out: cm.mito.90min): 103% | viability at 0.01 µM ([1]; 1.5 h, read-out: cm.tc.90min): 104% | viability at 0.1 µM ([1]; 1.5 h, read-out: cm.cam.90min): 94.2% | activity at 0.1 µM ([1]; 1.5 h, read-out: cm.mii.90min): 114% | activity at 0.1 µM ([1]; 1.5 h, read-out: cm.mito.90min): 93.9% | viability at 0.1 µM ([1]; 1.5 h, read-out: cm.tc.90min): 94.3% | viability at 1 µM ([1]; 1.5 h, read-out: cm.cam.90min): 100% | activity at 1 µM ([1]; 1.5 h, read-out: cm.mii.90min): 108% | activity at 1 µM ([1]; 1.5 h, read-out: cm.mito.90min): 100% | viability at 1 µM ([1]; 1.5 h, read-out: cm.tc.90min): 100% | viability at 10 µM ([1]; 1.5 h, read-out: cm.cam.90min): 101% | activity at 10 µM ([1]; 1.5 h, read-out: cm.mii.90min): 84.5% | activity at 10 µM ([1]; 1.5 h, read-out: cm.mito.90min): 99.4% | viability at 10 µM ([1]; 1.5 h, read-out: cm.tc.90min): 101% | viability at 100 µM ([1]; 1.5 h, read-out: cm.cam.90min): 0% | activity at 100 µM ([1]; 1.5 h, read-out: cm.mii.90min): 0% | activity at 100 µM ([1]; 1.5 h, read-out: cm.mito.90min): 0% | viability at 100 µM ([1]; 1.5 h, read-out: cm.tc.90min): 0% | viability at 0.01 µM ([1]; 24 h, read-out: cm.cam.24hrs): 84.9% | activity at 0.01 µM ([1]; 24 h, read-out: cm.mii.24hrs): 104% | activity at 0.01 µM ([1]; 24 h, read-out: cm.mito.24hrs): 82.4% | viability at 0.01 µM ([1]; 24 h, read-out: cm.tc.24hrs): 85.7% | viability at 0.1 µM ([1]; 24 h, read-out: cm.cam.24hrs): 100% | activity at 0.1 µM ([1]; 24 h, read-out: cm.mii.24hrs): 110% | activity at 0.1 µM ([1]; 24 h, read-out: cm.mito.24hrs): 101% | viability at 0.1 µM ([1]; 24 h, read-out: cm.tc.24hrs): 100% | viability at 1 µM ([1]; 24 h, read-out: cm.cam.24hrs): 97.7% | activity at 1 µM ([1]; 24 h, read-out: cm.mii.24hrs): 98.1% | activity at 1 µM ([1]; 24 h, read-out: cm.mito.24hrs): 94.2% | viability at 1 µM ([1]; 24 h, read-out: cm.tc.24hrs): 97.9% | viability at 10 µM ([1]; 24 h, read-out: cm.cam.24hrs): 45.5% | activity at 10 µM ([1]; 24 h, read-out: cm.mii.24hrs): 157% | activity at 10 µM ([1]; 24 h, read-out: cm.mito.24hrs): 40.2% | viability at 10 µM ([1]; 24 h, read-out: cm.tc.24hrs): 45.4% | viability at 100 µM ([1]; 24 h, read-out: cm.cam.24hrs): 0% | activity at 100 µM ([1]; 24 h, read-out: cm.mii.24hrs): 0% | activity at 100 µM ([1]; 24 h, read-out: cm.mito.24hrs): 0% | viability at 100 µM ([1]; 24 h, read-out: cm.tc.24hrs): 0% | minimal effective concentration ([1]; 1.5 h, read-out: cm.cam.90min POD): 32.4 µM | minimal effective concentration ([1]; 1.5 h, read-out: cm.mii.90min POD): 7.9 µM | minimal effective concentration ([1]; 1.5 h, read-out: cm.mito.90min POD): 12.7 µM | minimal effective concentration ([1]; 1.5 h, read-out: cm.tc.90min POD): 33.4 µM | minimal effective concentration ([1]; 24 h, read-out: cm.cam.24hrs POD): 1.84 µM | minimal effective concentration ([1]; 24 h, read-out: cm.mii.24hrs POD): 2.28 µM | minimal effective concentration ([1]; 24 h, read-out: cm.mito.24hrs POD): 0.97 µM | minimal effective concentration ([1]; 24 h, read-out: cm.tc.24hrs POD): 1.88 µM | viability at 0.01 µM [2, 3]: 84.3% | activity at 0.01 µM [2, 4]: 83.2% | activity at 0.01 µM [2, 5]: 99.1% | activity at 0.01 µM [2, 6]: 101% | viability at 0.1 µM [2, 3]: 103% | activity at 0.1 µM [2, 4]: 103% | activity at 0.1 µM [2, 5]: 112% | activity at 0.1 µM [2, 6]: 97.2% | viability at 1 µM [2, 3]: 75% | activity at 1 µM [2, 4]: 73.6% | activity at 1 µM [2, 5]: 104% | activity at 1 µM [2, 6]: 101% | viability at 10 µM [2, 3]: 57.5% | activity at 10 µM [2, 4]: 27.6% | activity at 10 µM [2, 5]: 10.3% | activity at 10 µM [2, 6]: 96.2% | viability at 100 µM [2, 3]: 2.82% | activity at 100 µM [2, 4]: 0% | activity at 100 µM [2, 5]: 0% | activity at 100 µM [2, 6]: 83.3% | minimal effective concentration ([2]; 24 hr, read-out: huvec.cyto.24hr POD): 0.12 µM | minimal effective concentration ([2]; 24 hr, read-out: huvec.mito.24hr POD): 0.13 µM | minimal effective concentration ([2]; 24 hr, read-out: huvec.mitoint.24hr POD): 3.51 µM | minimal effective concentration ([2]; 24 hr, read-out: huvec.nma.24hr POD): 8.87 µM | viability at 0.01 µM [2, 7]: 84.5% | viability at 0.1 µM [2, 7]: 103% | viability at 1 µM [2, 7]: 75% | viability at 10 µM [2, 7]: 57.7% | viability at 100 µM [2, 7]: 89.6% | minimal effective concentration ([2]; 24 hrs, read-out: huvec.tc.24hrs POD): 0.12 µM
